Reference: patent publication US20260115122A1, “PERSONAL CARE COMPOSITIONS COMPRISING PANCRATIUM MARITIMUM” (GALDERMA HOLDING SA, priority 2022, published 2026)

System: Normal Human Epidermal Melanocytes darkly-pigmented (NHEM-DP)
Assay: Melanin content (melanin reduction) assay
Type: cell-based
Details: 72 h treatment, test product 0.004%, n=3, FIG. 2
Experimental: Normal Human Epidermal Melanocytes—NHEMs-DP. Normal Human Epidermal Melanocytes darkly-pigmented (NHEM-DP; Thermo Fisher Scientific, C1025C) were grown in M254 medium (Thermo Fisher Scientific, M254500) supplemented with Human Melanocyte Growth Supplement (HMGS; Thermo Fisher Scientific, S0025) and antibiotics (Gentamycin, Thermo Fisher Scientific, 15710049). The cells were maintained in a humidified incubator at 37° C. with a 5% CO2 atmosphere.
At the end of treatment, NHEM-DP cells (n=3) were lysed using NaOH (1N; Merck, 109956) solution. From the collected extracts, the protein content was quantified by a colorimetric assay (Pierce Coomassie Protein Assay Kit, Thermo Fischer Scientific, 23200) using a spectrophotometer (GloMax Explorer GM3500, Microplate Reader) for reading of the optical density at 600 nm. The melanin content was determined after sample heating for 1 h at 80° C. for its solubilization and reading of the optical density at 490 nm. Afterwards, the amount of melanin was determined on the basis of a standard curve using synthetic melanin (Sigma Aldrich, 8631) and then normalized to the total protein content. […]
At the end of the treatments, intracellular melanin was extracted from cell cultures and analyzed as described in materials and methods in Example 1. […]

Q: With `O=c1cc(CO)occ1O` [Kojic acid] as the compound, how does the “melanin content vs untreated control” value read?
A: significantly decreased the melanin content
